Patent US20180244629A1, “Compounds And Compositions For The Treatment Of Cancer” (The Broad Institute, Inc., priority 2013, published 2018)
Where two headings read alike, the source gives them in different places.

Experiments:
COLO741 cells = experiment: COLO741 Assay (Cell Titer Glo viability); format: cell-based
Description: (§1) C0L0741 Assay Protocol. Day 0: C0L0741 cells (ECACC, C0L0741 93052621) are grown to 95% confluence in RPMI, 10% FBS/Pen/Strep/L-Glutamine. Day 1: Plate cells (1500 per well) in 40 μl culturing media using Corning 384-well plates (3570), incubate in standard TC conditions (5% CO2, 95% humidity, 37° C.) for 24 h. Day 2: Dilute each concentration of a half-log serial dilution of compound (1 mM-100 nM) 1:200 in culturing media and add […] (50 μl total volume) of that dilution to designated wells (8 replicates per concentration). The final dilution will be 1000×([…]). Day 4: Remove plate from incubator to cool for 20 minutes to room temperature. Add 40 μl of a 25% Promega Cell Titer Glo solution (diluted 1:3 with room temperature PBS) with Thermo combi or multichannel and incubate for 10 minutes. Read on Perkin-Elmer EnVision with US LUM settings for 0.1 second per well.
(§2) Compounds as shown were tested against various cells lines in vitro according to the methods described herein. Cells are plated in 384-well format in a total volume of 40 μl. Indicated compound concentrations were added 24 hrs after plating the cells. After 48 hrs cell viability was determined using Cell Titer Glo® Luminescent Cell Viability Assay.

HeLa cells = experiment: HeLa Cytotoxicity Assay (Cell Titer Glo viability); format: cell-based
Description: HeLa Cytotoxicity Assay Protocol: Day 0: HeLa cells (ATCC, HeLa CCL-2) are grown to 95% confluence in DMEM, 10% FBS/Pen/Strep/L-Glutamine. Day 1: Plate cells (1000 per well) in 40 μl culturing media using Corning 384-well plates (3570), incubate in standard TC conditions (5% CO2, 95% humidity, 37 degrees C.) for 24 hours. Day 2: Dilute each concentration of a half-log serial dilution of compound (1 mM-100 nM) 1:200 in culturing media and add 10 μl (50 μl total volume) of that dilution to designated wells (8 replicates per concentration). The final dilution will be 1000×(1 μM-100 pM). Day 4: Remove plate from incubator to cool for 20 minutes to room temperature. Add 40 μl of a 25% Promega Cell Titer Glo solution (diluted 1:3 with room temperature PBS) with Thermo combi or multichannel and incubate for 10 minutes. Read on Perkin-Elmer EnVision with US LUM settings for 0.1 second per well.
as §2
(§3) Known PDE3 inhibitors as shown below were tested against various cells lines in vitro according to the methods described herein. Cells are plated in 384-well format in a total volume of 40 μl. Indicated compound concentrations were added 24 hrs after plating the cells. After 48 hrs cell viability was determined using Cell Titer Glo® Luminescent Cell Viability Assay.

H2122 cells = experiment: H2122 Assay (Cell Titer Glo viability); format: cell-based
Description: Selective toxicity in cell line panel. H2122 Assay Protocol Day 0: H2122 cells (ATCC, H2122 CCL-5985) are grown to 95% confluence in RPMI, 10% FBS/Pen/Strep/L-Glutamine. Day 1: Plate cells (750 per well) in 40 μl culturing media using Corning 384-well plates (3570), incubate in standard TC conditions (5% CO2, 95% humidity, 37 degrees C.) for 24 h. Day 2: Dilute each concentration of a half-log serial dilution of compound (1 mM-100 nM) 1:200 in culturing media and add 10 μl (50 μl total volume) of that dilution to designated wells (8 replicates per concentration). The final dilution will be 1000×([…]). Day 4: Remove plate from incubator to cool for 20 minutes to room temperature. Add 40 μl of a 25% Promega Cell Titer Glo solution (diluted 1:3 with room temperature PBS) with Thermo combi or multichannel and incubate for 10 minutes. Read on Perkin-Elmer EnVision with US LUM settings for 0.1 second per well.
as §2

PDE3 = conditions: reference value; read-out: PDE3 activity (ref); cited from earlier work
A549 cells = experiment: A549 Cytotoxicity Assay (Cell Titer Glo viability); format: cell-based
Description: as §1, with “A549 Cytotoxicity Assay” for “C0L0741 Assay”, “0: A549” for “0: C0L0741”, “cells (ATCC, A549 CCL-185)” for “cells (ECACC, C0L0741 93052621)”, “cells (1000” for “cells (1500”, “10 min.” for “10 minutes.”
A549 Assay Protocol. Day 0: A549 cells (ATCC) are grown in a Triple flask (NUNC) to ˜95% confluence (TrypLE Phenol Red free) and resuspended for dispensing at 25,000 cells/mL of DMEM, 10% FBS/Pen/Strep/L-Glutamine (using the TAP Compact SelecT automated cell culture system). Day 1: Plate cells at 1000 per well in 40 uL media (DMEM/10% FBS/Pen/Strep/L-Glutamine) using Corning 8867BC 384 well plates; incubate in standard TC conditions (5% CO2; 95% humidity, 37° C.) for 24 hours (Compact SelecT). Day 2: Add 100 nL compound per well at dose into 40 uL assay volume using a pin tool (CyBi Well). Pin 100 nL cytotoxic compounds, mitoxantrone (CID 4212) to positive control wells to a final concentration of 10 μM (100 nL 4 mM DMSO stock). Incubate for […] at 37° C. in Liconic incubator, 95% humidity 5% CO2. Day 4: Remove plate from incubator, cool for 15 minutes to room temperature; add 20 μL 50% Promega CellTiterGlo (diluted 1:1 with PBS, pH 7.4) with Thermo Combi. Incubate at room temperature for 5 minutes. Read plates on Perkin-Elmer EnVision with standard luminescence settings for 0.1 sec per well.
as §2, §3

HEL = HEL cell line viability (Cell Titer Glo); format: cell-based
Description: as §2

[1] = Homo sapiens, COLO-741, Example 18, Mean ± SD (n = 3), read-out: Potency (EC50 nM) COLO741
[2] = Homo sapiens, HeLa, Example 18, Mean ± SD (n = 3), read-out: Potency (EC50 nM) HeLa
[3] = Homo sapiens, NCI-H2122, Example 18, Mean ± SD (n = 3), read-out: Potency (EC50 nM) H2122
[4] = Homo sapiens, HeLa, known PDE3 inhibitors, Mean (n = 3), read-out: Potency (EC50 nM) HeLa
[5] = Homo sapiens, A549, known PDE3 inhibitors, Mean (n = 3), read-out: Potency (EC50 nM) A549
[6] = Homo sapiens, COLO-741, 48 h, 48 hrs, Cell Titer Glo, read-out: EC50 COLO741
[7] = Homo sapiens, HeLa, 48 h, Cell Titer Glo, read-out: EC50 HeLa
[8] = Homo sapiens, NCI-H2122, 48 h, 48 hrs, Cell Titer Glo, read-out: EC50 H2122
[9] = Homo sapiens, A549, 48 hrs, Cell Titer Glo, read-out: EC50 A549
[10] = 48 hrs, Cell Titer Glo, read-out: EC50 COLO741
[11] = 48 hrs, Cell Titer Glo, read-out: EC50 H2122
[12] = 48 hrs, Cell Titer Glo, read-out: EC50 A549

| Structure (SMILES) | EC50 (COLO741 cells; [1]) | EC50 (HeLa cells; [2]) | EC50 (H2122 cells; [3]) | EC50 (HeLa cells; [4]) | IC50 (PDE3) | EC50 (A549 cells; [5]) | also measured |
| --- | --- | --- | --- | --- | --- | --- | --- |
| O=C1CN2Cc3c(ccc(Cl)c3Cl)NC2=N1 | 12.2 ± 0.9 nM | 6.8 ± 0.9 nM | 17.4 ± 3.5 nM |  |  |  |  |
| COc1cc2c(cc1OC)-c1c/c(=N\c3c(C)cc(C)cc3C)n(C)c(=O)n1CC2 [Trequinsin, reference compound] |  |  |  | > 10000 nM | 0.25 nM | > 10000 nM |  |
| CC(=O)Nc1ccc(C2=NNC(=O)C[C@H]2C)cc1[N+](=O)[O-] [drawing 221] | 7.8 ± 0.3 nM | 4.9 ± 1.1 nM | 12.3 ± 3.4 nM |  |  |  |  |
| CCN1N=C(c2ccc(N(CC)CC)cc2)[C@H](C)CC1=O [drawing 140] |  |  |  |  |  |  | EC50 (COLO741 cells; [6]): > 1000 nM; EC50 (HeLa cells; [7]): > 10000 nM; EC50 (H2122 cells; [8]): > 1000 nM; EC50 (A549 cells; [9]): > 10000 nM |
| C[C@@H]1CC(=O)NN=C1c1ccc(N2CCOCC2)cc1 [drawing 218] | 20.2 ± 4.8 nM | 13.1 ± 1.9 nM | 31.4 ± 10.8 nM |  |  |  |  |
| C[C@@H]1CC(=O)NN=C1c1ccc(-c2cncnc2)cc1 [drawing 219] | 19.8 ± 1.8 nM | 12.7 ± 2.2 nM | 37.8 ± 12.3 nM |  |  |  |  |
| O=C1CCC(c2ccc(-n3ccnc3)cc2)=NN1 [Imazodan, reference compound] |  |  |  | 720 nM | 1300 nM | > 10000 nM |  |
| CC(=O)Nc1ccc(C2=NNC(=O)C[C@H]2C)cc1 [OR-1896, reference compound] |  |  |  | > 10000 nM | 94 nM |  | EC50 (A549 cells; known PDE3 inhibitors, Mean (n = 3), read-out: Potency (EC50 nM) A549): > 10000 nM |
| Cc1[nH]c(=O)c(C#N)cc1-c1ccncc1 [Millrinone, reference compound] |  |  |  | > 10000 nM | 56 nM | > 10000 nM |  |
| CCN(CC)c1ccc(C2=NNC(=O)C[C@H]2C)cc1[N+](=O)[O-] [drawing 145] |  |  |  |  |  |  | EC50 (COLO741 cells; [10]): 3.6 to 4.4 nM; EC50 (HeLa cells; 48 hrs, Cell Titer Glo, read-out: EC50 HeLa): 4.05 nM; EC50 (HEL; 48 hrs): 11.3 to 16.2 nM; EC50 (H2122 cells; [11]): 7.4 nM; EC50 (A549 cells; [12]): > 10000 nM |
| CCN(CC)c1ccc(C2=NNC(=O)C[C@H]2C)cc1[N+](=O)[O-] [drawing 141] |  |  |  |  |  |  | EC50 (COLO741 cells; [6]): 3.97 nM; EC50 (HeLa cells; [7]): 2.63 nM; EC50 (HEL; Homo sapiens, HEL, 48 h): 13.5 nM; EC50 (H2122 cells; [11]): 3.62 nM; EC50 (A549 cells; [9]): > 10000 nM |
| C[C@@H]1CC(=O)NN=C1c1ccc(N2CCOCC2)cc1 [drawing 138] |  |  |  |  |  |  | EC50 (COLO741 cells; [10]): 14.5 to 18.9 nM; EC50 (HeLa cells; [7]): 10.3 to 12.1 nM; EC50 (HEL; 48 hrs): 25.7 to 58.4 nM; EC50 (H2122 cells; [8]): 11.8 nM; EC50 (A549 cells; [12]): > 10000 nM |
| O=C1CN2Cc3c(ccc(Cl)c3Cl)N=C2N1 [Anagrelide, reference compound] |  |  |  | 8.2 nM | 36 nM | > 10000 nM |  |
| C[C@@H]1CC(=O)NN=C1c1ccc(NN=C(C#N)C#N)cc1 [Levosimendan, reference compound] |  |  |  | > 10000 nM | 2.4 nM | > 10000 nM |  |
| C[C@@H]1CC(=O)NN=C1c1ccc(F)c(F)c1 [drawing 220] | 33.2 ± 14.1 nM | 22.3 ± 4.5 nM | 47.7 ± 14.1 nM |  |  |  |  |
| C[C@@H]1CC(=O)NN=C1c1ccc(N2CCOCC2)c(F)c1 [drawing 217] | 3.1 ± 0.6 nM | 1.6 ± 0.2 nM | 3.2 ± 1.1 nM |  |  |  |  |
| C[C@@H]1CC(=O)NN=C1c1ccc(C2CCCCC2)cc1 [drawing 216] | 11.4 ± 0.3 nM | 7.7 ± 1.3 nM | 29.6 ± 8.7 nM |  |  |  |  |
| CN/C(=N\c1ccc(C2=NNC(=O)CC2C)cc1)NC#N (stereo not drawn) [Siguazodan, reference compound] |  |  |  | > 10000 nM | 117 nM | > 10000 nM |  |
| C[C@@H]1CC(=O)NN=C1c1ccc(N2CCOCC2)cc1 [drawing 151] |  |  |  |  |  |  | EC50 (COLO741 cells; [6]): 16.5 nM; EC50 (HEL; Homo sapiens, HEL, 48 h): 38.7 nM; EC50 (A549 cells; [9]): > 10000 nM |
| COc1cc(-c2ccc(=O)[nH]n2)ccc1OC(F)F [Zardaverine, reference compound] |  |  |  | 56 nM | 2500 nM | > 10000 nM |  |
| CCNc1ccc(C2=NNC(=O)C[C@H]2C)cc1[N+](=O)[O-] [drawing 142] |  |  |  |  |  |  | EC50 (COLO741 cells; [6]): 0.76 nM; EC50 (HeLa cells; [7]): 0.461 nM; EC50 (HEL; Homo sapiens, HEL, 48 h): 3.98 nM; EC50 (H2122 cells; [8]): 0.8 nM; EC50 (A549 cells; [9]): > 10000 nM |
| CN(C(=O)CCCOc1ccc2[nH]c(=O)ccc2c1)C1CCCCC1 [Cllostamide, reference compound] |  |  |  | > 10000 nM | 27 nM | > 10000 nM |  |
